The test system of one assay is HIV-1 RT mutant V111A. Briefly: single round infection assay, V111A. It counts as cell-based. To be noted: for fold-change of IC50 of the mutant relative to WT: V111A vs WT. The procedure: (§1) The human osteosarcoma cell line, HOS, was obtained from Dr. Richard Schwartz (Michigan State University, East Lansing, MI) and grown in Dulbecco’s modified Eagle’s medium (Invitrogen, Carlsbad, CA) supplemented with 5 % (v/v) fetal bovine serum, 5 % newborn calf serum, and penicillin (50 units/ml) plus streptomycin (50 µg/ml; Quality Biological, Gaithersburg, MD). Virion production and single-round infectivity assays were used to determine antiviral activity (IC50 values) of the compounds as previously described.
(§2) pNLNgoMIVR-ΔEnv.LUC has been described previously. The RT open reading frame was removed from pNLNgoMIVR-ΔEnv.LUC (digestion with SpeI and SalI) and inserted between the SpeI and SalI sites of pBluescript II KS+. Using that construct as the wild-type template, we prepared the following HIV-1 RT mutants using the QuikChange II XL (Stratagene, La Jolla, CA) site-directed mutagenesis protocol kit: L100I, K103N, Y181C, Y188L, H221Y, K103N/Y181C, G190A, G190S, M230L, P236L, L100I/K103N, K103N/P225H, V106A/G190A/F227L, V106A, L234I, V106A/F227L, V106A/L234I, V106A/F227L/L234I, E40K, D67E, K101E, V111A, E138K, M184I, M184V, K101E/M184I, K101E/M184V, E138K/M184I, E138K/M184V, K101P, Y181I, and K101P/V179I. The following sense oligonucleotides were used with matching cognate antisense oligonucleotides (not shown) (Integrated DNA Technologies, Coralville, IA) in the mutagenesis: L100I, 5′-[…]-3′; L100I 2-103, 5′-[…]-3′; K103N, 5′-[…]-3′; Y181C, 5′-[…]-3′; Y188L, 5′-[…]-3′; H221Y, 5′-[…]-3′; G190A, 5′-[…]-3′; G190S, 5′-[…]-3′; P225H, 5′-[…]-3′; F227, 5′-[…]-3′; M230L, 5′-[…]-3′; P236L, 5′-[…]-3′; V106A, 5′-[…]-3′; L234I, 5′-[…]-3′; E40K, 5′-[…]-3′; D67E, 5′-[…]-3′; K101E, 5′-[…]-3′; V111A, 5′-[…]-3′; E138K, 5′-[…]-3′; M184I, 5′-[…]-3′; M184V, 5′-[…]-3′; K101P, 5′-[…]-3′; Y181I, 5′-[…]-3′; K101P/V179I, 5′-[…]-3′. The double mutants K103N/Y181C, K103N/P225H, and L100I/K103N were made using the previously generated K103N mutant and the appropriate oligonucleotides to add the second mutation, Y181C, P225, and L100I respectively. The double mutants V106A/F227L and V106A/L234I were prepared using the previously generated V106A mutant and the appropriate oligonucleotides to add the second mutation, F227L and L234I, respectively. The double mutants K101E/M184I and K101E/M184V were constructed using the previously generated K101E mutant and the appropriate oligonucleotides to add the second mutation, M184I and M184V, respectively. The double mutants E138K/M184I and E138K/M184V were constructed using the previously generated E138K mutant and the appropriate oligonucleotides for the second mutation, M184I and M184V, respectively. The triple mutant V106A/F227L/L234I was made using the previously generated V106A/F227L double mutant and the appropriate oligonucleotides for the third mutation, L234I. The triple mutant V106A/G190A/F227L was constructed in a series of steps using the previously generated V106A mutant and the appropriate oligonucleotides for the second mutation, G190A, to generate the double mutant V106A/G190A, and then the triple mutant was made using double mutant V106A/G190A and oligonucleotides for the third mutation, F227L. […]
(§3) 10.1186/s12977-016-0244-2 The IC50 values (nM) of RPV and the RPV analogs were determined against the NNRTI resistant mutants were measured by using a single round infection assay, n = 4. The concentrations (nM) are measured by reductions in luciferase reporter activity followed by the standard deviations. […]

In assay [1] the test system is HIV-1 RT mutant K103N/Y181C. Also on record: method as in PMID 23217210. The following applies: previous study; cited from earlier work.
The test system of assay [2] is HIV-1 RT mutant K101E/M184V. Briefly: single round infection assay, K101E/M184V. It counts as cell-based. To be noted: for fold-change of IC50 of the mutant relative to WT: K101E/M184V vs WT. How it is done:
as §1
pNLNgoMIVR-ΔEnv.LUC has been described previously. The RT open reading frame was removed from pNLNgoMIVR-ΔEnv.LUC (digestion with SpeI and SalI) and inserted between the SpeI and SalI sites of pBluescript II KS+. Using that construct as the wild-type template, we prepared the following HIV-1 RT mutants using the QuikChange II XL (Stratagene, La Jolla, CA) site-directed mutagenesis protocol kit: L100I, K103N, Y181C, Y188L, H221Y, K103N/Y181C, G190A, G190S, M230L, P236L, L100I/K103N, K103N/P225H, V106A/G190A/F227L, V106A, L234I, V106A/F227L, V106A/L234I, V106A/F227L/L234I, E40K, D67E, K101E, V111A, E138K, M184I, M184V, K101E/M184I, K101E/M184V, E138K/M184I, E138K/M184V, K101P, Y181I, and K101P/V179I. The following sense oligonucleotides were used with matching cognate antisense oligonucleotides (not shown) (Integrated DNA Technologies, Coralville, IA) in the mutagenesis: L100I, 5′-[…]-3′; L100I 2-103, 5′-[…]-3′; K103N, 5′-[…]-3′; Y181C, 5′-[…]-3′; Y188L, 5′-[…]-3′; H221Y, 5′-[…]-3′; G190A, 5′-[…]-3′; G190S, 5′-[…]-3′; P225H, 5′-[…]-3′; F227, 5′-[…]-3′; M230L, 5′-[…]-3′; P236L, 5′-[…]-3′; V106A, 5′-[…]-3′; L234I, 5′-[…]-3′; E40K, 5′-[…]-3′; D67E, 5′-[…]-3′; K101E, 5′-[…]-3′; V111A, 5′-[…]-3′; E138K, 5′-[…]-3′; M184I, 5′-[…]-3′; M184V, 5′-[…]-3′; K101P, 5′-[…]-3′; Y181I, 5′-[…]-3′; K101P/V179I, 5′-[…]-3′. The double mutants K103N/Y181C, K103N/P225H, and L100I/K103N were made using the previously generated K103N mutant and the appropriate oligonucleotides to add the second mutation, Y181C, P225, and L100I respectively. The double mutants V106A/F227L and V106A/L234I were prepared using the previously generated V106A mutant and the appropriate oligonucleotides to add the second mutation, F227L and L234I, respectively. The double mutants K101E/M184I and K101E/M184V were constructed using the previously generated K101E mutant and the appropriate oligonucleotides to add the second mutation, M184I and M184V, respectively. The double mutants E138K/M184I and E138K/M184V were constructed using the previously generated E138K mutant and the appropriate oligonucleotides for the second mutation, M184I and M184V, respectively. The triple mutant V106A/F227L/L234I was made using the previously generated V106A/F227L double mutant and the appropriate oligonucleotides for the third mutation, L234I. The triple mutant V106A/G190A/F227L was constructed in a series of steps using the previously generated V106A mutant and the appropriate oligonucleotides for the second mutation, G190A, to generate the double mutant V106A/G190A, and then the triple mutant was made using double mutant V106A/G190A and oligonucleotides for the third mutation, F227L. The DNA sequence of each construct was verified by DNA sequence determination. The sequences encoding the mutant RTs were then subcloned into pNLNgoMIVR-ΔEnv.LUC (between the KpnI and SalI sites) to produce the mutant HIV-1 constructs. These DNA sequences were also checked independently by DNA sequence determination.
as §3

For another assay, the system named is HIV-1 RT mutant Y188L. Also on record: method as in PMID 23217210. To be noted: previous study; cited from earlier work.
A further assay concerns HIV-1 RT mutant M184V. Briefly: single round infection assay, M184V. The format is cell-based. How it is done: as §1, §2, §3
The subject of a further assay is HIV-1 RT mutant M184I. In words: single round infection assay, M184I. The format is cell-based. The following applies: Human immunodeficiency virus 1, M184I; ± SD, n=4. The procedure:
as §1
as §2, with “respectively.” for “respectively. The double mutants E138K/M184I and E138K/M184V were constructed using the previously generated E138K mutant and the appropriate oligonucleotides for the second mutation, M184I and M184V, respectively. The triple mutant V106A/F227L/L234I was made using the previously generated V106A/F227L double mutant and the appropriate oligonucleotides for the third mutation, L234I. The triple mutant V106A/G190A/F227L was constructed in a series of steps using the previously generated V106A mutant and the appropriate oligonucleotides for the second mutation, G190A, to generate the double mutant V106A/G190A, and then the triple mutant was made using double mutant V106A/G190A and oligonucleotides for the third mutation, F227L.”
as §3

The subject of another assay is HIV-1 RT mutant E138K. Further details: method as in PMID 23217210. To be noted: previous study; cited from earlier work.

The structures appear in SMILES notation.

The term IC50 denotes the concentration that inhibits the measured activity by half. On to `Cc1cc(/C=C/C#N)cc(C)c1Nc1ccnc(Nc2ccc(C#N)cc2)n1` [RPV, rilpivirine], for which, in the assay with HIV-1 RT mutant V111A, the “fold-change of IC50 of the mutant relative to WT” value was less than 2. Besides, the concentration for half-maximal inhibition (IC50) in assay [1] is less than 5 nM.

On to `Cc1cc(/C=C/C#N)cc(C)c1Nc1nc(Nc2ccc(C#N)cc2)ncc1[N+](=O)[O-]` [compound 6], for which, in assay [2], the “fold-change of IC50 of the mutant relative to WT” value is listed as 2. Also, the half-maximal inhibitory concentration (IC50) with HIV-1 RT mutant Y188L is less than 10 nM.

With `Cc1cc(/C=C/C#N)cc(C)c1Nc1nc(Nc2ccc(C#N)cc2)ncc1N` [compound 7], the 50% inhibitory concentration (IC50) in the assay with HIV-1 RT mutant Y188L is less than 10 nM; in assay [1] it was less than 5 nM.

With `Cc1cc(/C=C/C#N)cc(C)c1Nc1ncc(N)c(Nc2ccc(C#N)cc2)n1` [compound 9], the “fold-change of IC50 of the mutant relative to WT” value in assay [2] was less than 2.

Regarding `COc1ccc(Cn2cnc3c(Nc4ccc(C#N)cc4)nc(Nc4c(C)cc(/C=C/C#N)cc4C)nc32)cc1` [compound 12], the IC50 in the assay with HIV-1 RT mutant V111A (Human immunodeficiency virus 1, V111A, ± SD, n=4) is 0.76 ± 0.17 nM; in assay [2] (Human immunodeficiency virus 1, K101E/M184V, ± SD, n=4) it was 1.8 ± 0.21 nM; in the assay on HIV-1 RT mutant M184V (Human immunodeficiency virus 1, M184V, ± SD, n=4), 1.6 ± 0.42 nM; in the assay with HIV-1 RT mutant M184I it was 0.69 ± 0.2 nM; in the assay with HIV-1 RT mutant E138K, 15 nM. The “fold-change of IC50 of the mutant relative to WT” value is less than 2 in the assay on HIV-1 RT mutant V111A, 3 in assay [2] and 2 in the assay on HIV-1 RT mutant M184V (M184V vs WT).

With `Cc1cc(/C=C/C#N)cc(C)c1Nc1nc(Nc2ccc(C#N)cc2)c2nc[nH]c2n1` [compound 13], the “fold-change of IC50 of the mutant relative to WT” value in assay [2] was determined as 2. For the same compound, in the assay with HIV-1 RT mutant Y188L, the IC50 was less than 10 nM.

The record behind these values is article PMC4754833, “Rilpivirine analogs potently inhibit drug-resistant HIV-1 mutants” (Retrovirology, 2016).
